Laboratory results: publication PMC9863987, “Identification of Aryl Polyamines Derivatives as Anti-Trypanosoma cruzi Agents Targeting Iron Superoxide Dismutase” (Pharmaceutics, 2022)
Where a name gives a salt, the structure may show the parent alone.

Legend:
[1] = tested on: T. cruzi SN3 strain epimastigotes; test: Screening against extracellular epimastigotes, SN3 strain (resazurin); type: cell-based, Trypanosoma cruzi; details: for IC50: Trypanosoma cruzi, epimastigotes, 48 h treatment + 24 h resazurin, mean of three ± SD, read-out: Activity IC50 T. cruzi SN3 Strain E; for Selectivity Index T. cruzi SN3 Strain E: IC50 Vero cells/IC50 epimastigotes
Description: (§1) Three different T. cruzi […] strains—MHOM/Pe/2011/Arequipa, discrete typing unit (DTU) V [26]; IRHOD/CO/2008/SN3, DTU I [27]; TINF/CH/1956/Tulahuen, DTU VI [26]—were grown at 28 °C in Gibco® RPMI 1640 Medium supplemented as previously reported, and used for in vitro screening.
(§2) Trypanocidal activity against epimastigotes was tested as previously reported. In brief, 5 × 10^5 mL^−1 epimastigotes culture medium were treated by adding the compounds in serial dilutions from 100 to 0.2 µM in 96-well plates (200 µL·well^−1) for 48 h. BZN and untreated growth control were also included in triplicate. Later, 20 μL of resazurin sodium salt (Sigma-Aldrich, St. Louis, MO, USA) was added, and the plates were incubated for another 24 h. Finally, the absorbance of the wells was measured at 570/600 nm and related to the control. The trypanocidal activity was expressed as the IC50 (inhibitory concentration 50) value using GraphPad Prism 6 software.

[2] = tested on: T. cruzi Tulahuen strain epimastigotes; test: Screening against extracellular epimastigotes, Tulahuen strain (resazurin); type: cell-based, Trypanosoma cruzi; details: for IC50: Trypanosoma cruzi, TULAHUEN, epimastigotes, 48 h treatment + 24 h resazurin, mean of three ± SD, read-out: Activity IC50 T. cruzi Tulahuen Strain E; for Selectivity Index T. cruzi Tulahuen Strain E: IC50 Vero cells/IC50 epimastigotes
Description: as §1, §2

Vero cells = test: Cytotoxicity test on mammalian Vero cells (resazurin); type: cell-based; details: Chlorocebus sabaeus, 48 h treatment + 24 h resazurin, mean of three ± SD, read-out: Toxicity IC50 Vero Cell
Description: Cytotoxicity against mammalian Vero cells (EACC No. 84113001) was tested as previously reported. In brief, 1.25 × 10^4 Vero cells·mL^−1, cultured at 37 °C, were treated by adding the compounds in serial dilutions from 400 to 1 µM in 96-well plates (200 µL·well^−1) for 48 h. BZN and untreated controls were also included in triplicate. Later, 20 μL of resazurin sodium salt (Sigma-Aldrich) was added, and the plates were incubated for another 24 h. Finally, cell viability was determined following the same procedure as described to assess the trypanocidal activity in the epimastigotes.

[3] = tested on: T. cruzi Arequipa strain epimastigotes; test: Screening against extracellular epimastigotes, Arequipa strain (resazurin); type: cell-based, Trypanosoma cruzi; details: for IC50: Trypanosoma cruzi, epimastigotes, 48 h treatment + 24 h resazurin, mean of three ± SD, read-out: Activity IC50 T. cruzi Arequipa Strain E; for Selectivity Index T. cruzi Arequipa Strain E: IC50 Vero cells/IC50 epimastigotes
Description: as §1, §2

[4] = tested on: T. cruzi Arequipa strain amastigotes; test: Screening against intracellular amastigotes in Vero cells, Arequipa strain (Giemsa counting); type: cell-based, Trypanosoma cruzi
Description: (§3) TINF/CH/1956/Tulahuen, DTU VI [26]—were grown at 28 °C in Gibco® RPMI 1640 Medium supplemented as previously reported, and used for in vitro screening. Trypanocidal activity against amastigotes was tested as previously reported. In brief, bloodstream trypomastigotes (BTs), obtained by cardiac puncture from infected BALB/c mice, were used to infect 1 × 10^4 Vero cells·well^−1 in 24-well plates with rounded coverslips at a multiplicity of infection (MOI) ratio of 10:1. After 24 h of infection, non-internalized trypomastigotes were washed and the infected cells were treated by adding the compounds in serial dilutions from 50 to 0.5 µM in […] for 72 h. BZN and untreated growth controls were also included in triplicate. Later, the number of amastigotes and infected cells were determined in Giemsa stained preparations by analysing 500 host cells randomly distributed in microscopic fields. The trypanocidal activity was expressed as the IC50 using GraphPad Prism 6 software (version 6.07).

[5] = tested on: T. cruzi Arequipa strain trypomastigotes; test: Screening against bloodstream trypomastigotes, Arequipa strain (resazurin); type: cell-based, Trypanosoma cruzi
[6] = tested on: T. cruzi Tulahuen strain amastigotes; test: Screening against intracellular amastigotes in Vero cells, Tulahuen strain (Giemsa counting); type: cell-based, Trypanosoma cruzi
Description: as §3

[7] = tested on: T. cruzi Tulahuen strain trypomastigotes; test: Screening against bloodstream trypomastigotes, Tulahuen strain (resazurin); type: cell-based, Trypanosoma cruzi
[8] = IC50 Vero cells/IC50 amastigotes
[9] = IC50 Vero cells/IC50 trypomastigotes

SMILES	IC50 [1] [µM]	IC50 [2] [µM]	CC50 (Vero cells) [µM]	IC50 [3] [µM]	other results
c1ccc(CNCCN(CCNCc2ccccn2)Cc2ccc3ccccc3c2)nc1 [Compound 1]	27.1 ± 2.1	26 ± 2.7	58.1 ± 6	28.3 ± 2.4	–
c1cncc(CNCCN(CCNCc2cccnc2)Cc2ccc3ccccc3c2)c1 [Compound 2]	5.7 ± 0.5	15.8 ± 1.4	38.5 ± 4.1	2.9 ± 0.3	Selectivity Index T. cruzi SN3 Strain E [1]: 6.7; Selectivity Index T. cruzi Tulahuen Strain E [2]: 2.4; Selectivity Index T. cruzi Arequipa Strain A [4, 8]: 6.2; IC50 ([4]; Trypanosoma cruzi, amastigotes in Vero cells, 72 h, mean of three ± SD): 6.2 ± 0.6 µM; Selectivity Index T. cruzi Arequipa Strain T [5, 9]: 8.0; IC50 ([5]; Trypanosoma cruzi, trypomastigotes, 24 h + 4 h resazurin, mean of three ± SD): 4.8 ± 0.5 µM; Selectivity Index T. cruzi Arequipa Strain E [3]: 13.5
c1ccc2cc(CN(CCNCc3ccncc3)CCNCc3ccncc3)ccc2c1 [Compound 3]	21.8 ± 1.9	19.2 ± 1.7	25.8 ± 2.7	18.7 ± 1.6	–
c1ccc2cc(CN(CCNCc3ccnc4ccccc34)CCNCc3ccnc4ccccc34)ccc2c1 [Compound 4, 1,7-Bis(4-quinolylmethyl)-4-(2-naphthylmethyl)-1,4,7-triazaheptane Pentahydrochloride]	11 ± 1	22.6 ± 3.3	5.3 ± 0.4	25.2 ± 2.7	–
O=C(NCCN(CCNC(=O)c1ccccn1)Cc1ccc2ccccc2c1)c1ccccn1 [Compound 6]	10 ± 1.2	16.1 ± 1.7	63.2 ± 5.7	12 ± 1.1	–
CN(C)c1cccc2c(S(=O)(=O)N(CCNCc3ccccn3)CCNCc3ccccn3)cccc12 [Compound 7]	10.4 ± 1.1	12.1 ± 1.1	41.3 ± 3.7	11.5 ± 1.1	–
CN(C)c1cccc2c(S(=O)(=O)N(CCNCc3cccnc3)CCNCc3cccnc3)cccc12 [Compound 8]	36.4 ± 3.4	10 ± 1.1	136 ± 14.8	48.1 ± 3.9	Selectivity Index T. cruzi SN3 Strain E [1]: 3.7; Selectivity Index T. cruzi Tulahuen Strain E [2]: 13.7; Selectivity Index T. cruzi Tulahuen Strain A [6, 8]: 8.0; IC50 ([6]; Trypanosoma cruzi, TULAHUEN, amastigotes in Vero cells, 72 h, mean of three ± SD): 17 ± 1.5 µM; Selectivity Index T. cruzi Tulahuen Strain T [7, 9]: 11.2; IC50 ([7]; Trypanosoma cruzi, TULAHUEN, trypomastigotes, 24 h + 4 h resazurin, mean of three ± SD): 12.2 ± 1.2 µM; Selectivity Index T. cruzi Arequipa Strain E [3]: 2.8
CN(C)c1cccc2c(S(=O)(=O)N(CCNC(=O)c3ccccn3)CCNC(=O)c3ccccn3)cccc12 [Compound 9]	59.6 ± 6.2	39.3 ± 4.2	49.3 ± 5	12.4 ± 1.2	–
O=S(=O)(c1cccc2ccccc12)N(CCNCc1ccccn1)CCNCc1ccccn1 [Compound 10]	14.3 ± 1.8	12.9 ± 1.8	14.9 ± 1.3	15.2 ± 1.8	–
CN(CCNCc1ccccn1)CCNCc1ccccn1 [Compound 11]	21.4 ± 2	30 ± 2.7	23.3 ± 2.1	12.8 ± 1.7	–
CN(CCNCc1ccncc1)CCNCc1ccncc1 [Compound 12]	87.5 ± 9	95.2 ± 8.4	188 ± 20.4	104 ± 12.8	–
O=S(=O)(c1cccc2cccnc12)N(CCNCc1ccccn1)CCNCc1ccccn1 [Compound 13]	5.5 ± 4.9	21 ± 1.8	28.3 ± 2.4	12.7 ± 1.4	–
c1cc2nc(c1)CNCCN(CCNCc1ccc3[nH]ncc3c1)CCNC2 [Compound 14]	25.8 ± 2.7	22.4 ± 2.1	60.3 ± 7	18.3 ± 1.4	–
c1cc(CNCCN2CCNCc3cccc(n3)CNCC2)nc(CNCCN2CCNCc3cccc(n3)CNCC2)c1 [Compound 16]	155 ± 14.9	129 ± 14.7	136 ± 14.7	102 ± 9.8	–
